Patent publication US20150209343A1, “TOPICAL DERMAL COMPOSITIONS” (Allergan, Inc., priority 2014, published 2015)
Converted amounts (≈) assume the structure as drawn. Read-outs that look alike come from different tables or passages of the source.

Legend:
[1] = Physicochemical properties of tazarotene
[2] = cited from earlier work
[3] = system: retinoic acid receptor (RAR) family: RARα, RARβ, and RARγ; details: cited from earlier work

## CCOC(=O)c1ccc(C#Cc2ccc3c(c2)C(C)(C)CCS3)nc1 [Tazarotene, Ethyl 6-[(4,4-dimethylthiochroman-6-yl)ethynyl]nicotinate]
[1]; at 1% or at 4% in Compritol
  crystalline drug by DSC or PXRD analysis: no crystalline drug was detected
[1]; isopropyl myristate, oil or lipid, read-out: Solubility in isopropyl myristate
  solubility: 7400 µg/mL (≈ 21.1 mM)
[1]; water, read-out: Solubility in water
  solubility: < 1 µg/mL
[2]
  pKa: 1.5^(1)

## CC1(C)CCSc2ccc(C#Cc3ccc(C(=O)O)cn3)cc21 [Tazarotenic acid]
[3]
  binding to RARα, RARβ and RARγ: binds to all three members
  selectivity among RARs: relative selectivity for RARβ, and RARγ
